Experimental data: patent US20090239836A1, “Multifunctional Ophthalmic Compositions” (priority 2008, published 2009)

Test: Solubility of compound having Formula V in various media
Format: physicochemical
Source text: For example, the solubility of the compound having Formula V in some embodiments of the present composition is compared to that in water in Table 1.

solubility (Medium: Water, pH 7): 0.0002 mg/mL
solubility (aqueous with cosolvent or surfactant or cyclodextrin, Medium: 1% Polysorbate 80): 0.012 mg/mL
solubility (aqueous with cosolvent or surfactant or cyclodextrin, Medium: 10% PEG-400/1% polysorbate 80 (a composition of the present invention)): 0.012 mg/mL
solubility (aqueous with cosolvent or surfactant or cyclodextrin, Medium: 25% PEG-40/1% polysorbate 80 (a composition of the present invention)): 0.018 mg/mL
solubility (organic solvent or mixture, Medium: PEG-400): 0.0056 mg/mL
Compound: Cc1ccc2c(NCC(O)(CC(C)(C)c3cc(F)cc4c3OCC4)C(F)(F)F)cccc2n1 (centres unmarked) [Compound Having Formula V]
